Test results from patent US4304715A, “Enkephalin analogues” (priority 1979, dated 1981).

Key:
rat brain membranes = assay: Radio receptor assay (R.R.A.), an opiate binding assay: displacement of tritiated naloxone from rat brain membranes; details: based on concentration required to displace 50% of (3H)naloxone (1nM) from rat brain membranes; pH 7.4, 15 minutes, bacitracin; Met Enkephalin = 100%
mouse vas deferens = details: inhibition of electrically induced contractions, Met Enkephalin = 100%
Procedure: (ii) M.V.D. stands for mouse vas deferens
were performed as described in the literature

CSCC[C@H](NC(=O)[C@H](Cc1ccccc1)NC(=O)CNC(=O)CCCC(N)Cc1ccc(O)cc1)C(N)=O (stereo partly drawn) [Analogue H211, 5-Amino-6-(4'-hydroxyphenyl)-hexanoyl-glycyl-L-phenylalanyl-L-methionine amide]
Activity Relative to Met Enkephalin R.R.A. (rat brain membranes): 9%
Activity Relative to Met Enkephalin M.V.D. (mouse vas deferens): 0.9%
